Measurements: paper PMC7377361, “Pressurized DNA state inside herpes capsids—A novel antiviral target” (PLoS Pathogens, 2020)

Tests used:
[1] = In vivo toxicity studies in mice (NIH/NIAID preclinical service); conditions: for %Lymphocyte / Hematocrit / WBC / AST / Alb:Glob Ratio / Albumin / Amylase / Bile Acids / Cholesterol / Creatine Kinase / GGT / Globin / Total Protein / Triglyceride / BUN / Ca:Phos Ratio / Calcium / Chloride / Glucose / K / Na / Na:K Ratio / Phosphorus / Uric Acid: Mean; for %Lymphocyte / Hematocrit / WBC: CBC (n=1-2); for AST / Alb:Glob Ratio / Albumin / Amylase / Bile Acids / Cholesterol / Creatine Kinase / GGT / Globin / Total Protein / Triglyceride: LIVER (n=5); for BUN / Ca:Phos Ratio / Calcium / Chloride / Glucose / K / Na / Na:K Ratio / Phosphorus / Uric Acid: RENAL (n=5)
Procedure: A control group was treated with PBS. […] No signs of distress or significant weight loss were observed during the 4 days of treatment. […]
B. In vivo toxicity studies in mice for bPEI 600 and DAB-Am-4. Experiments were conducted through NIAID/NIH preclinical service agreement No HHSN272201700017I/ […]
Procedures and Endpoints:
1- Baseline weights of all mice
2- IP treatment (twice a day, for 4 days)
3- Daily assessment of weights and condition
4- All animals sacrificed the following morning after the last evening treatment 5- Blood samples collected by IC stick for lab tests (liver, spleen and blood profiles) 6- Internal organs examined for signs of gross tissue toxicity
1. Toxicity evaluation of bPEI 600 Da in mice.
A toxicity screen was performed in uninfected mice treated with 3 doses of bPEI 600 Da, administered for 4 days. In this study, 3 doses of 5, 10 and 25 mg/kg/day were administered twice daily IP for 4 days (n=4/group). A control group was treated with the vehicle (PBS). The mice were examined daily and the weights and general condition were recorded daily. To examine liver, renal and blood function parameters, blood samples were obtained by intracardiac puncture at the end of the study (the following day after last dose) and the mice were sacrificed to examine the internal organs for signs of gross tissue toxicity.
The weights were recorded
In order to confirm the results of the lab results obtained in the toxicity study, a second group of slightly larger mice were treated with the high and the low doses of bPEI 600 Da (25 mg/kg and 5 mg/kg, n=6/group) and the vehicle control (PBS, n=4) for 4 days. Blood samples were collected at the end of the study for liver and renal chemistry profiles. The results are shown in the next […]
REN AL PBS 5 mg/kg 25 mg/kg
LIVER PBS 5 mg/kg 25 mg/kg
Al b:Gl ob R a ti o 1 1 1 […]
obtained from the second group of mice treated with bPEI 600 Da for 4 days.
No signs of distress or significant weight loss were ere observed during the […]
show significant differences with the results obtained in the PBS treated group of control mice.
Statistical analysis: Means were compared by Student’s t test, and mortality was compared by Fisher’s exact test, where applicable.
Ethics regulation of Laboratory animals: Animals were housed in facilities approved by the Association for Assessment and Accreditation of Laboratory Animal Care and Use Committee
2. Toxicity evaluation of DAB-Am-4 in mice.
A toxicity screen in uninfected mice was performed. 2 doses of 5 and 25 mg/kg/day were administered twice daily IP for 4 days (n=6/group). A control group was treated with the vehicle […]
The mice were examined daily and the weights and general condition were recorded. […]

[2] = mice, 25 mg/kg/day twice daily IP, 4 days
[3] = mice, 5 mg/kg/day twice daily IP, 4 days

Procedure for HFF-1 cells: In parallel, for each DNA condensing compound, we determined the cytotoxicity concentration (CC50 value) using standard in vitro cellular replication assays in human foreskin fibroblast (HFF) cells (used as a standard for herpesvirus replication in vitro assays for antiviral compound tests)[48]. Cytotoxicity assays were performed on a parallel set of six-well plates containing confluent monolayers of HFF-1 cells at the same cell amount as used for antiviral plaque reduction assays for EC50 value determination, but cells were uninfected[48].
Cytotoxicity assays were performed on a parallel set of six-well plates containing HFF-1 cells that received the same compound concentrations as used for the antiviral assays but remained uninfected. […]
Each compound was evaluated in a standard cytotoxicity assay by standard methods [100]. […] The optical density was then determined at 550 nm and CC50 values were interpolated from the experimental data.
The inhibition of either Vero cell or HFF-1 cell proliferation was used to refine estimates of cytotoxicity for the compounds and was performed according to standard procedures [101]. […] The plates were incubated for 72 h at 37°C; the cells were then dislodged with trypsin and counted on a Beckman Coulter Counter. […]

With `NCCCN(CCCN)CCCCN(CCCN)CCCN` [DAB-Am-4] the CC50 (HFF-1 cells) was 15 µM, the weight loss [1, 2] was ~ 10% and the “weight loss from baseline” value [1, 2] was 2.0 g. For the same compound, the tolerability ([1]; mice, 5, 10 and 25 mg/kg/day, twice daily IP, 4 days) was “tolerated well”, the “signs of acute toxicity (lab tests)” value ([1]; mice, 5 and 25 mg/kg/day DAB-Am-4, 5 mg/kg/day DAB-Am-8) was “no conclusive signs of acute toxicity” and the “signs of distress during the observation period” value ([1]; mice, low dose 5 mg/kg/day) was “no significant signs”. For the same compound, the “%Lymphocyte” value [1, 3] was 67%, the Hematocrit [1, 3] was 43 and the WBC [1, 3] was 7. The AST [1, 3] was 402, the “Alb:Glob Ratio” value [1, 3] was 1 and the Albumin [1, 3] was 3. For the same compound, the Amylase [1, 3] was 792, the “Bile Acids” value [1, 3] was 134 and the Cholesterol [1, 3] was 91. For the same compound, the “Creatine Kinase” value [1, 3] was 2340, the GGT [1, 3] was under 1 and the Globin [1, 3] was 2. For the same compound, the “Total Protein” value [1, 3] was 5, the Triglyceride [1, 3] was 118 and the BUN [1, 3] was 35. The “Ca:Phos Ratio” value [1, 3] was 1, the Calcium [1, 3] was 9 and the Chloride [1, 3] was 104. It also gave a Glucose [1, 3] of 221, a K [1, 3] of 7 and a Na [1, 3] of 143. For the same compound, the “Na:K Ratio” value [1, 3] was 22, the Phosphorus [1, 3] was 11 and the “Uric Acid” value [1, 3] was 3. For the same compound, the “%Lymphocyte” value [1, 2] was 61%, the Hematocrit [1, 2] was 36 and the WBC [1, 2] was 4. For the same compound, the AST [1, 2] was 414, the “Alb:Glob Ratio” value [1, 2] was 1 and the Albumin [1, 2] was 3. The Amylase [1, 2] was 760, the “Bile Acids” value [1, 2] was 13 and the Cholesterol [1, 2] was 85. For the same compound, the “Creatine Kinase” value [1, 2] was 3089, the GGT [1, 2] was under 1 and the Globin [1, 2] was 2. For the same compound, the “Total Protein” value [1, 2] was 5, the Triglyceride [1, 2] was 149 and the BUN [1, 2] was 36. For the same compound, the “Ca:Phos Ratio” value [1, 2] was 1, the Calcium [1, 2] was 9 and the Chloride [1, 2] was 106. For the same compound, the Glucose [1, 2] was 182, the K [1, 2] was 6 and the Na [1, 2] was 147. For the same compound, the “Na:K Ratio” value [1, 2] was 25, the Phosphorus [1, 2] was 9 and the “Uric Acid” value [1, 2] was 5.
